# Reference: PubChem BioAssay (NCI)
#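 96-well plates; 48 h exposure; 5 concentrations. Endpoints by linear interpolation between flanking doses. Not reached: highest tested concentration assigned. TGI: total growth inhibition.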
# How the values were obtained:
# Assay in all cases: NCI-60 cell line screen, 48 h
# IGROV1 ovarian = system: IGROV1 ovarian
# DU-145 prostate = system: DU-145 prostate
# U251 CNS = system: U251 CNS
# NCI/ADR-RES ovarian = system: NCI/ADR-RES ovarian
# HCT-15 colon = system: HCT-15 colon
# MCF7 breast = system: MCF7 breast
# COLO 205 colon = system: COLO 205 colon
# SK-MEL-28 melanoma = system: SK-MEL-28 melanoma
# 786-0 renal = system: 786-0 renal
# UACC-62 melanoma = system: UACC-62 melanoma
# NCI-H460 lung = system: NCI-H460 lung
# RPMI-8226 leukemia = system: RPMI-8226 leukemia
# MDA-N = system: MDA-N
# SK-MEL-5 melanoma = system: SK-MEL-5 melanoma
# OVCAR-5 ovarian = system: OVCAR-5 ovarian
# EKVX NSCLC = system: EKVX NSCLC
# BT-549 breast = system: BT-549 breast
# OVCAR-4 ovarian = system: OVCAR-4 ovarian
# KM12 colon = system: KM12 colon
# HCC-2998 colon = system: HCC-2998 colon
# K-562 leukemia = system: K-562 leukemia
# MALME-3M melanoma = system: MALME-3M melanoma
# RXF 393 renal = system: RXF 393 renal
# HOP-62 NSCLC = system: HOP-62 NSCLC
# SK-MEL-2 melanoma = system: SK-MEL-2 melanoma
# MDA-MB-231 breast = system: MDA-MB-231 breast
# M14 melanoma = system: M14 melanoma
# SF-268 CNS = system: SF-268 CNS
# LOX IMVI melanoma = system: LOX IMVI melanoma
# CCRF-CEM leukemia = system: CCRF-CEM leukemia
# SNB-19 CNS = system: SNB-19 CNS
# A549 NSCLC = system: A549 NSCLC
# NCI-H522 lung = system: NCI-H522 lung
# SF-295 CNS = system: SF-295 CNS
# TK-10 renal = system: TK-10 renal
# HT29 colon = system: HT29 colon
# SF-539 CNS = system: SF-539 CNS
# SR leukemia = system: SR leukemia
# SNB-75 CNS = system: SNB-75 CNS
# HL-60(TB) leukemia = system: HL-60(TB) leukemia
# NCI-H226 lung = system: NCI-H226 lung
# MOLT-4 leukemia = system: MOLT-4 leukemia
# SN12C renal = system: SN12C renal
# NCI-H23 lung = system: NCI-H23 lung
# PC-3 prostate = system: PC-3 prostate
# OVCAR-8 ovarian = system: OVCAR-8 ovarian
# OVCAR-3 ovarian = system: OVCAR-3 ovarian
# MDA-MB-435 = system: MDA-MB-435
# ACHN renal = system: ACHN renal
# UO-31 renal = system: UO-31 renal
# SW-620 colon = system: SW-620 colon
# SK-OV-3 ovarian = system: SK-OV-3 ovarian
# UACC-257 melanoma = system: UACC-257 melanoma
# HCT-116 colon = system: HCT-116 colon
# HS 578T breast = system: HS 578T breast
# T-47D breast = system: T-47D breast
# CAKI-1 renal = system: CAKI-1 renal
smiles,measurement,setting,value
CC1C(=O)C23OC[C@@]1(C)C1(O)CC[C@@H](C)[C@]21CC3=O (some centres not stated),TGI,IGROV1 ovarian,> 100 µM
same,TGI,DU-145 prostate,> 100 µM
same,TGI,U251 CNS,> 100 µM
same,TGI,NCI/ADR-RES ovarian,> 100 µM
same,TGI,HCT-15 colon,> 100 µM
same,TGI,MCF7 breast,> 100 µM
same,TGI,COLO 205 colon,> 100 µM
same,TGI,SK-MEL-28 melanoma,> 100 µM
same,TGI,786-0 renal,> 100 µM
same,TGI,UACC-62 melanoma,> 100 µM
same,TGI,NCI-H460 lung,> 100 µM
same,TGI,RPMI-8226 leukemia,> 100 µM
same,TGI,MDA-N,> 100 µM
same,TGI,SK-MEL-5 melanoma,> 100 µM
same,TGI,OVCAR-5 ovarian,> 100 µM
same,TGI,EKVX NSCLC,> 100 µM
same,TGI,BT-549 breast,> 100 µM
same,TGI,OVCAR-4 ovarian,> 100 µM
same,TGI,KM12 colon,> 100 µM
same,TGI,HCC-2998 colon,> 100 µM
same,TGI,K-562 leukemia,> 100 µM
same,TGI,MALME-3M melanoma,> 100 µM
same,TGI,RXF 393 renal,> 100 µM
same,TGI,HOP-62 NSCLC,> 100 µM
same,TGI,SK-MEL-2 melanoma,> 100 µM
same,TGI,MDA-MB-231 breast,> 100 µM
same,TGI,M14 melanoma,> 100 µM
same,TGI,SF-268 CNS,> 100 µM
same,TGI,LOX IMVI melanoma,> 100 µM
same,TGI,CCRF-CEM leukemia,> 100 µM
same,TGI,SNB-19 CNS,> 100 µM
same,TGI,A549 NSCLC,> 100 µM
same,TGI,NCI-H522 lung,> 100 µM
same,TGI,SF-295 CNS,> 100 µM
same,TGI,TK-10 renal,> 100 µM
same,TGI,HT29 colon,> 100 µM
same,TGI,SF-539 CNS,> 100 µM
same,TGI,SR leukemia,> 100 µM
same,TGI,SNB-75 CNS,> 100 µM
same,TGI,HL-60(TB) leukemia,> 100 µM
same,TGI,NCI-H226 lung,> 100 µM
same,TGI,MOLT-4 leukemia,> 100 µM
same,TGI,SN12C renal,> 100 µM
same,TGI,NCI-H23 lung,> 100 µM
same,TGI,PC-3 prostate,> 100 µM
same,TGI,OVCAR-8 ovarian,> 100 µM
same,TGI,OVCAR-3 ovarian,> 100 µM
same,TGI,MDA-MB-435,> 100 µM
same,TGI,ACHN renal,> 100 µM
same,TGI,UO-31 renal,> 100 µM
same,TGI,SW-620 colon,> 100 µM
same,TGI,SK-OV-3 ovarian,> 100 µM
same,TGI,UACC-257 melanoma,> 100 µM
same,TGI,HCT-116 colon,> 100 µM
same,TGI,HS 578T breast,> 100 µM
same,TGI,T-47D breast,> 100 µM
COP(=O)(C(/C=C/c1ccccc1)OC(C)=O)[C@@H]1CCCC[C@H]1N(CC(C)(C)C)C(C)=O (some centres not stated),TGI,IGROV1 ovarian,24.1 µM
same,TGI,DU-145 prostate,32.5 µM
same,TGI,U251 CNS,31.7 µM
same,TGI,NCI/ADR-RES ovarian,42.2 µM
same,TGI,HCT-15 colon,61.6 µM
same,TGI,MCF7 breast,> 100 µM
same,TGI,COLO 205 colon,27.1 µM
same,TGI,SK-MEL-28 melanoma,53.1 µM
same,TGI,786-0 renal,35.8 µM
same,TGI,UACC-62 melanoma,28 µM
same,TGI,NCI-H460 lung,28.6 µM
same,TGI,MDA-N,36.7 µM
same,TGI,SK-MEL-5 melanoma,27.3 µM
same,TGI,OVCAR-5 ovarian,78.9 µM
same,TGI,EKVX NSCLC,57.8 µM
same,TGI,BT-549 breast,33 µM
same,TGI,OVCAR-4 ovarian,33.1 µM
same,TGI,KM12 colon,> 100 µM
same,TGI,HCC-2998 colon,28.2 µM
same,TGI,K-562 leukemia,53 µM
same,TGI,MALME-3M melanoma,33.4 µM
same,TGI,RXF 393 renal,22.1 µM
same,TGI,CAKI-1 renal,92.6 µM
same,TGI,HOP-62 NSCLC,42.3 µM
same,TGI,SK-MEL-2 melanoma,29.8 µM
same,TGI,MDA-MB-231 breast,31.6 µM
same,TGI,M14 melanoma,28.8 µM
same,TGI,SF-268 CNS,40.8 µM
same,TGI,LOX IMVI melanoma,30.3 µM
same,TGI,CCRF-CEM leukemia,67.2 µM
same,TGI,SNB-19 CNS,> 100 µM
same,TGI,A549 NSCLC,47.3 µM
same,TGI,NCI-H522 lung,27.9 µM
same,TGI,SF-295 CNS,39.9 µM
same,TGI,TK-10 renal,48.2 µM
same,TGI,HT29 colon,28 µM
same,TGI,SF-539 CNS,33.4 µM
same,TGI,SR leukemia,36.2 µM
same,TGI,SNB-75 CNS,22.7 µM
same,TGI,HL-60(TB) leukemia,41.3 µM
same,TGI,NCI-H226 lung,27 µM
same,TGI,MOLT-4 leukemia,27.7 µM
same,TGI,SN12C renal,30.2 µM
same,TGI,NCI-H23 lung,42.5 µM
same,TGI,PC-3 prostate,37.4 µM
same,TGI,OVCAR-8 ovarian,35.6 µM
same,TGI,OVCAR-3 ovarian,31.9 µM
same,TGI,MDA-MB-435,36.2 µM
same,TGI,ACHN renal,30.7 µM
same,TGI,UO-31 renal,27.9 µM
same,TGI,SW-620 colon,41.2 µM
same,TGI,SK-OV-3 ovarian,> 100 µM
same,TGI,UACC-257 melanoma,31 µM
same,TGI,HCT-116 colon,25.6 µM
same,TGI,HS 578T breast,31.1 µM
same,TGI,T-47D breast,32.6 µM
